From patent publication US4164577A, “6-(2-Acylamino-2-arylacetamido)penicillanic acids” (priority 1977, dated 1979) come the findings set out here.

Values after ≈ are worked out from the molar mass of the structure shown. Where only a bound is given, the exact number is not on record here.

What all share (experiment): in vitro antibacterial activity, minimum inhibitory concentration (agar dilution)
Type in all cases: cell-based
On the technique in general: In agar dilution the substance is mixed into plates at graded concentrations.

In test [1] the test system is Pseudomonas aeruginosa M-16. As to conditions: ATCC15692, 20 h, read-out: Minimum Inhibitory concentration (MIC) Pseudomonas aeruginosa M-16. The procedure: (§1) The compounds of this invention were tested for antibacterial activity according to the following procedure.
(§2) Nutrient broth and nutrient agar were prepared according to the conventional procedure. Nutrient agar was used as a vehicle. The stock solution was prepared at 100 μg/ml of the test material in the vehicle. Two-fold dilutions were made with the vehicle and then the diluted stock solution was added to a petri dish and solidified by chilling. Test organisms were grown in the nutrient broth for 20 hours at 37° C. The hardened surface was inoculated with a loopful of the test organism solution containing 1×10^6 cells per milliliter and incubated for 20 hours at 37° C. At the end of this period, growth of the organism was observed. […] The following Table 1 summarizes the activity of representative compounds as active antibacterial agents, and compares them with the reference drug Sulbenicillin.

In test [2] the test system is Pseudomonas aeruginosa M-2008. As to conditions: ATCC15691, 20 h, read-out: Minimum Inhibitory concentration (MIC) Pseudomonas aeruginosa M-2008. The procedure: as §1, §2
For test [3], the system named is Pseudomonas aeruginosa M-12. As to conditions: ATCC15692, 20 h, read-out: Minimum Inhibitory concentration (MIC) Pseudomonas aeruginosa M-12. The procedure:
as §1, §2

Take `CC1(C)S[C@@H]2[C@H](NC(=O)[C@H](NC(=O)c3nc4cc(Br)cnc4nc3O)c3ccc(O)cc3)C(=O)N2[C@H]1C(=O)O` [Compound 6]: the MIC is less than 1.5 µg/mL in test [1] and 3.1 µg/mL (≈ 5.02 µM) in test [2].

Turning to `Cc1nc2nc(O)c(C(=O)N[C@@H](C(=O)N[C@@H]3C(=O)N4[C@@H]3SC(C)(C)[C@@H]4C(=O)O)c3ccc(O)cc3)nc2cc1Br` [Compound 10], in test [1], the MIC turned out to be 1.5 µg/mL (≈ 2.38 µM).

In the case of `CC1(C)S[C@@H]2[C@H](NC(=O)C(c3ccccc3)S(=O)(=O)O)C(=O)N2[C@H]1C(=O)O` (stereo partly drawn) [11 Sulbenicillin, Sulbenicillin, reference compound], the MIC in test [3], in test [1] and in test [2] was 25 µg/mL (≈ 60.3 µM) each time.

For the compound `CC1(C)S[C@@H]2[C@H](NC(=O)[C@H](NC(=O)c3nc4cc(Cl)cnc4nc3O)c3ccc(O)cc3)C(=O)N2[C@H]1C(=O)O` [Compound 4], the MIC came to 3.1 µg/mL (≈ 5.41 µM) in test [1] and 6.2 µg/mL (≈ 10.8 µM) in test [2].

Regarding `CC1(C)S[C@@H]2[C@H](NC(=O)[C@H](NC(=O)c3nc4cccnc4nc3O)c3ccc(O)cc3)C(=O)N2[C@H]1C(=O)O` [Compound 2, potassium 6-[D-2-(3-hydroxypyrido[2,3-b]pyrazine-2-carboxamido)-2-(p-hydroxyphenyl)acetamido]penicillanate], the MIC in test [3] was less than 1.5 µg/mL; in test [1], 0.78 µg/mL; in test [2] it was 3.1 µg/mL.

For the compound `CC1(C)S[C@@H]2[C@H](NC(=O)[C@H](NC(=O)c3nc4cncnc4nc3O)c3ccc(O)cc3)C(=O)N2[C@H]1C(=O)O` [Compound 8], the MIC in test [1] was less than 1.56 µg/mL.
